The subject of this data set is Balb/c mice. In words: Animal study: effect on normal colonic cells (organ length, body weight, histology, symptoms). As to conditions: control groups (negative / positive control), 12 weeks. The procedure:
Wild-type Balb/c mice were obtained from Jackson Laboratory, USA, and housed in plastic cages with free access to water and food. The mice were randomly assigned to five test groups, which included three control groups: vehicle control, negative control (100 mM sodium propionate), and positive control (AOM (Azoxymethane)/DSS). Additionally, there were two experimental groups receiving 100 mM of indoxyl sulfate, one via intraperitoneal (IP) administration and the other via intrarectal (IR) administration. Each group consisted of six mice. In the AOM/DSS group, AOM was injected intraperitoneally at a dosage of 10 mg/kg bodyweight. The AOM was injected only once on the 1st day of experiment. The positive control mice received 2% DSS for 7 days in the first week, fourth week, and seventh week. […]
The colon was collected from each mouse for subsequent histology studies. […] Various parameters, including tumor localization (proximal or distal bowel, rectum, cecum, ileocecal valve), tumor number, cancer stage (dysplasia/adenoma or adenocarcinoma, determined by infiltration into the muscular mucosa), immune cell infiltration, and inflammation, were assessed. Bowel inflammation was evaluated by observing immune cell infiltration and the presence or absence of mucous membranes using a 10× objective. […]

For `CCC(=O)[O-].[Na+]` [Propionate, sodium propionate], the “Length of large intestine (mean ± SD)” value amounted to 9.98 ± 0.67 cm and the “Length of spleen (mean ± SD)” value turned out to be 1.5 ± 0.08 cm.
